The record followed here is patent publication US20100120730A1, “6-BENZYL-2,3,4,7-TETRAHYDRO-INDOLO [2,3-C] QUINOLINE COMPOUNDS USEFUL AS PDE5 INHIBITORS” (NYCOMED GmbH, priority 2007, published 2010).

Counter-ions that a name gives are not always drawn.

The first data set has as its target T1, human PDE5 (Homo sapiens, UniProt O76074).
T1 construct: from tissue; host or cells: human platelets from fresh donor blood (10,000 g supernatant of sonified platelets)
Description: Inhibition of PDE5 activity (modified SPA test, human platelet lysate). Format: biochemical. Conditions: PDE5-containing human platelet lysate, 0.5 μM cGMP substrate, 37° C. As to the method:
As a source for human PDE5, platelets were used. For that purpose, 150 ml fresh blood from human donors anticoagulated with citrate [final concentration 0.3% (w/v)] was centrifuged at 200 g for 10 min to obtain the so-called platelet-rich-plasma (PRP) as a supernatant. 1/10 volume of ACD solution (85 mM Na3-citrate, 111 mM D-glucose, 71 mM citric acid, pH 4.4) was added to 9/10 volume of PRP. After centrifugation (1,400 g, 10 min) the cell pellet was resuspended in 3 ml homogenization buffer (NaCl 140 mM, KCl 3.8 mM, EGTA 1 mM, MgCl2 1 mM, Tris-HCl 20 mM, beta-mercaptoethanol 1 mM, pH 8.2) plus protease-inhibitor mix giving rise to the final concentrations of 0.5 mM Pefablock (Roche), 10 μM Leupeptin, 5 μM Trypsininhibitor, 2 mM Benzamidin and 10 μM Pepstatin A. The suspension was sonified and thereafter centrifuged for 15 min at 10,000 g. The resulting supernatant (platelet lysate) was used for enzymatic testings.
PDE5A1 activity is inhibited by the compounds of the invention in a modified SPA (scintillation proximity assay) test, supplied by Amersham Biosciences (see procedural instructions “phosphodiesterase [3H]cAMP SPA enzyme assay, code TRKQ 7090”), carried out in 96-well microtitre plates (MTP's). The test volume is 100 μl and contains 20 mM Tris buffer (pH 7.4), 0.1 mg of BSA (bovine serum albumin)/ml, 5 mM Mg^2+, 1 μM motapizone, 10 nM PDE2 inhibitor BAY-60-7550, 0.5 μM cGMP (including about 50,000 cpm of [3H]cGMP as a tracer), 1 μl of the respective compound dilution in dimethylsulfoxide (DMSO) and sufficient PDE5-containing platelet lysat (10,000×g supernatant, see above) to ensure that 10-20 wt % of the cGMP is converted under the said experimental conditions. […] After a preincubation of 5 min at 37° C., the reaction was started by adding the substrate (cGMP) and the assay was incubated for a further 15 min; after that, it was stopped by adding SPA beads (50 μl). In accordance with the manufacturer's instructions, the SPA beads had previously been resuspended in water, but were then diluted 1:3 (v/v) in water; the diluted solution also contains 3 mM 8-methoxymethyl-3-isobutyl-1-methylxanthine (IBMX) to ensure a complete PDE activity stop. After the beads have been sedimented (>30 min), the MTP's are analyzed in commercially available luminescence detection devices. The corresponding IC50 values of the compounds for the inhibition of PDE activity are determined from the concentration-effect curves by means of non-linear regression.
Broadly, the IC50 is the point on the concentration scale where inhibition reaches its midpoint. Compound `COc1ccc(Cc2nc3c(c4c2[nH]c2ccccc24)C(=O)CC(C)(C)C3)cc1` [Example 1, 6-(4-Methoxy-benzyl)-3,3-dimethyl-2,3,4,7-tetrahydro-indolo[2,3-c]quinolin-1-one] gave a half-maximal inhibitory concentration (IC50) of 3.02 nM.
The compound `COc1ccc(Cc2nc3c(c4c2[nH]c2ccccc24)C(=O)CCC3)cc1` [Example 2, 6-(4-Methoxy-benzyl)-2,3,4,7-tetrahydro-indolo[2,3-c]quinolin-1-one] had an IC50 of 6.31 nM.
On the same count and under the same terms, in the case of `CC1(C)CC(=O)c2c(nc(Cc3ccc(Br)cc3)c3[nH]c4ccccc4c23)C1` [Example 5, 6-(4-Bromo-benzyl)-3,3-dimethyl-2,3,4,7-tetrahydro-indolo[2,3-c]quinolin-1-one, HCl salt] it was 10.7 nM; in that of `COc1ccc(Cc2nc3c(c4c2[nH]c2ccccc24)CCCC3)cc1` [Example 6, 6-(4-Methoxy-benzyl)-2,3,4,7-tetrahydro-1H-indolo[2,3-c]quinoline, HCl salt], 12.6 nM.
As for `CC1(C)CC(=O)c2c(nc(Cc3ccc4c(c3)OCO4)c3[nH]c4ccccc4c23)C1` [Example 7, 6-Benzo[1,3]dioxol-5-ylmethyl-3,3-dimethyl-2,3,4,7-tetrahydro-indolo[2,3-c]quinolin-1-one, HCl salt], the IC50 is 3.89 nM.
Still for that read-out and setting: in the case of `CC1(C)CC(=O)c2c(nc(Cc3ccc([N+](=O)[O-])cc3)c3[nH]c4ccccc4c23)C1` [Example 8, 3,3-Dimethyl-6-(4-nitro-benzyl)-2,3,4,7-tetrahydro-indolo[2,3-c]quinolin-1-one, HCl salt] it was 81.3 nM; in that of `Brc1ccc(Cc2nc3c(c4c2[nH]c2ccccc24)CCCC3)cc1` [Example 9, 6-(4-Bromo-benzyl)-2,3,4,7-tetrahydro-1H-indolo[2,3-c]quinoline, HCl salt], 22.9 nM; in that of `COc1cccc(Cc2nc3c(c4c2[nH]c2ccccc24)C(=O)CC(C)(C)C3)c1` [Example 10, 6-(3-Methoxy-benzyl)-3,3-dimethyl-2,3,4,7-tetrahydro-indolo[2,3-c]quinolin-1-one], 79.4 nM.
`CC1(C)CC(=O)c2c(nc(Cc3cccc([N+](=O)[O-])c3)c3[nH]c4ccccc4c23)C1` [Example 13, 3,3-Dimethyl-6-(3-nitro-benzyl)-2,3,4,7-tetrahydro-indolo[2,3-c]quinolin-1-one] gave a 50% inhibitory concentration (IC50) of 135 nM.
In turn, `O=C1CCCc2nc(Cc3cccc([N+](=O)[O-])c3)c3[nH]c4ccccc4c3c21` [Example 19, 6-(3-Nitro-benzyl)-2,3,4,7-tetrahydro-indolo[2,3-c]quinolin-1-one] showed an IC50 of 288 nM.
Turning to `CC1(C)CC(=O)c2c(nc(Cc3ccc(O)cc3)c3[nH]c4ccccc4c23)C1` [Example 39, 6-(4-Hydroxy-benzyl)-3,3-dimethyl-2,3,4,7-tetrahydro-indolo[2,3-c]quinolin-1-one], inhibition was half-maximal at 1.91 nM (IC50).
Turning to `Nc1ccc(Cc2nc3c(c4c2[nH]c2ccccc24)C(=O)CCC3)cc1` [Example 42, 6-(4-Amino-benzyl)-2,3,4,7-tetrahydro-indolo[2,3-c]quinolin-1-one], 25.7 nM corresponded to half-maximal inhibition (IC50).
Regarding `Nc1cccc(Cc2nc3c(c4c2[nH]c2ccccc24)C(=O)CCC3)c1` [Example 43, 6-(3-Amino-benzyl)-2,3,4,7-tetrahydro-indolo[2,3-c]quinolin-1-one], inhibition was half-maximal at 11.5 nM (IC50).
Compound `CCC(=O)Nc1ccc(Cc2nc3c(c4c2[nH]c2ccccc24)C(=O)CC(C)(C)C3)cc1` [Example 45, N-[4-(3,3-Dimethyl-1-oxo-2,3,4,7-tetrahydro-1H-indolo[2,3-c]quinolin-6-ylmethyl)-phenyl]-propionamide] had an IC50 of 34.7 nM.
Same read-out and setting: in the case of `CC(=O)Nc1ccc(Cc2nc3c(c4c2[nH]c2ccccc24)C(=O)CCC3)cc1` [Example 46, N-[4-(1-Oxo-2,3,4,7-tetrahydro-1H-indolo[2,3-c]quinolin-6-ylmethyl)-phenyl]-acetamide] it was 67.6 nM; in that of `CC1(C)Cc2nc(Cc3ccc4c(c3)OCO4)c3[nH]c4ccccc4c3c2C(O)C1` (stereo not shown) [Example 59, 6-Benzo[1,3]dioxol-5-ylmethyl-3,3-dimethyl-2,3,4,7-tetrahydro-1H-indolo[2,3-c]quinolin-1-ol], 2.69 nM.
`COc1ccc(Cc2nc3c(c4c2[nH]c2ccccc24)C(O)CC(C)(C)C3)c(F)c1` (stereo not shown) [Example 65, 6-(2-Fluoro-4-methoxy-benzyl)-3,3-dimethyl-2,3,4,7-tetrahydro-1H-indolo[2,3-c]quinolin-1-ol] had an IC50 of 1.12 nM.
Take `COc1ccc(Cc2nc3c(c4c2[nH]c2ccccc24)C(O)CC(C)(C)C3)cc1F` (stereo not shown) [Example 68, 6-(3-Fluoro-4-methoxy-benzyl)-3,3-dimethyl-2,3,4,7-tetrahydro-1H-indolo[2,3-c]quinolin-1-ol]: half-maximal inhibition (IC50) was put at 1.58 nM.
Compound `Nc1cccc(Cc2nc3c(c4c2[nH]c2ccccc24)C(O)CCC3)c1` (stereo not shown) [Example 72, 6-(3-Amino-benzyl)-2,3,4,7-tetrahydro-1H-indolo[2,3-c]quinolin-1-ol] gave an IC50 of 49 nM. Against the preceding compound, the IC50 is about 31-fold higher.
The compound `CC1(C)CC(=O)c2c(nc(Cc3ccc(NC(N)=O)cc3)c3[nH]c4ccccc4c23)C1` [Example 75, [4-(3,3-Dimethyl-1-oxo-2,3,4,7-tetrahydro-1H-indolo[2,3-c]quinolin-6-ylmethyl)-phenyl]-urea] had an IC50 of 10.5 nM.

Test system in another data set: not given
Test: not given
Conditions: not given
By melting point is commonly meant the temperature, or range, at which the solid turns liquid. As to `CC1(C)CC(=O)c2c(nc(Cc3ccc(Br)cc3)c3[nH]c4ccccc4c23)C1` (as salt: HCl) [Example 5, 6-(4-Bromo-benzyl)-3,3-dimethyl-2,3,4,7-tetrahydro-indolo[2,3-c]quinolin-1-one, HCl salt], the melting point lay in the range of 244 to 245 °C.
For `CC1(C)CC(=O)c2c(nc(Cc3ccc([N+](=O)[O-])cc3)c3[nH]c4ccccc4c23)C1` (as salt: HCl) [Example 8, 3,3-Dimethyl-6-(4-nitro-benzyl)-2,3,4,7-tetrahydro-indolo[2,3-c]quinolin-1-one, HCl salt], the melting point lay within 214 to 215 °C.
On to `Brc1ccc(Cc2nc3c(c4c2[nH]c2ccccc24)CCCC3)cc1` (as salt: HCl) [Example 9, 6-(4-Bromo-benzyl)-2,3,4,7-tetrahydro-1H-indolo[2,3-c]quinoline, HCl salt], for which the melting point was 311 to 312 °C.
Turning to `CC1(C)Cc2nc(Cc3ccc4c(c3)OCO4)c3[nH]c4ccccc4c3c2C(O)C1` (stereo not shown) (as salt: HCl) [Example 59, 6-Benzo[1,3]dioxol-5-ylmethyl-3,3-dimethyl-2,3,4,7-tetrahydro-1H-indolo[2,3-c]quinolin-1-ol], the melting point was in the range of 114 to 119 °C.
`COc1ccc(Cc2nc3c(c4c2[nH]c2ccccc24)C(=O)CCC3)cc1` [Example 2, 6-(4-Methoxy-benzyl)-2,3,4,7-tetrahydro-indolo[2,3-c]quinolin-1-one] registered a melting point of 177 °C.
`CC1(C)CC(=O)c2c(nc(Cc3ccc([N+](=O)[O-])cc3)c3[nH]c4ccccc4c23)C1` [Example 16, 3,3-Dimethyl-6-(4-nitro-benzyl)-2,3,4,7-tetrahydro-indolo[2,3-c]quinolin-1-one] came in with a melting point of 164 to 166 °C.
With `CC1(C)Cc2nc(Cc3ccc(O)c(F)c3)c3[nH]c4ccccc4c3c2[C@H](O)C1` [Example 87, (R)-6-(3-Fluoro-4-hydroxy-benzyl)-3,3-dimethyl-2,3,4,7-tetrahydro-1H-indolo[2,3-c]quinolin-1-ol], the melting point was in the range of 232 to 234 °C.
The compound `CC1(C)Cc2nc(Cc3ccc(O)c(F)c3)c3[nH]c4ccccc4c3c2[C@@H](O)C1` [Example 88, (S)-6-(3-Fluoro-4-hydroxy-benzyl)-3,3-dimethyl-2,3,4,7-tetrahydro-1H-indolo[2,3-c]quinolin-1-ol] registered a melting point of 233 to 234 °C.
Consider `COc1c(F)cc(Cc2nc3c(c4c2[nH]c2ccccc24)[C@@H](O)CC(C)(C)C3)cc1F` [Example 89, (S)-6-(3,5-Difluoro-4-methoxy-benzyl)-3,3-dimethyl-2,3,4,7-tetrahydro-1H-indolo[2,3-c]quinolin-1-ol], for which the melting point fell in the range of 161 to 162 °C.
`COc1c(F)cc(Cc2nc3c(c4c2[nH]c2ccccc24)[C@H](O)CC(C)(C)C3)cc1F` [Example 90, (R)-6-(3,5-Difluoro-4-methoxy-benzyl)-3,3-dimethyl-2,3,4,7-tetrahydro-1H-indolo[2,3-c]quinolin-1-ol] showed a melting point of 161 to 162 °C.
Still for that read-out and setting: in the case of `COc1ccc(Cc2nc3c(c4c2[nH]c2ccccc24)[C@@H](OC(=O)[C@@H]2CCC(=O)N2)CC(C)(C)C3)cc1F` [Example 98, (S)-6-(3-Fluoro-4-methoxy-benzyl)-3,3-dimethyl-2,3,4,7-tetrahydro-1H-indolo[2,3-c]quinolin-1-ol pyroglutamate] it was 185 to 187 °C.
